Assays:
HepG2 cells = assay: In vitro cytotoxicity (MTT), HepG2; format: cell-based, human; details: HepG2, 4 hours exposure
Protocol: (§1) HT-29 cells (human colon tumour-derived), MCF7 cells (human breast cancer-derived) and HepG2 cells (human liver cancer-derived) were cultured in Dulbecco's Modified Eagles Medium (DMEM) supplemented with 10% heat-inactivated foetal calf serum, 2 mM L-glutamine, penicillin (50 IU/ml), streptomycin (50 μg/ml) and 1% non-essential amino acids. Cells were harvested by trypsinisation and diluted to 5×10^4 cells/ml, and 200 μl of cell suspension was plated into each well of a 96 well plate and allowed to attach overnight at 37° C. with 5% CO2. […] 20 μl of a 5 mg/1 m MTT solution was added to each well and the cells were incubated for 4 hours at 37° C. The medium was removed and 200 μl DMSO was added to dissolve formazan crystals. Plates were read at 570 nm and background at 690 nm was subtracted.

C57BL/6J-+/+ mice = assay: Lean disease-free +/+ mice, oral gavage daily for 14 days; format: in vivo, mouse; details: 25 mg/kg/day
Protocol: (§2) The C57BL/6J-ob/ob mouse is an obese, leptin-deficient animal that is widely accepted as a model of obesity and diabetes. Age-paired, disease-free (lean) animals (C57BL/6J-+/+) were also included in the study to observe the ‘normal’ response.
(§3) One group of 10 ob/ob mice was also treated with vehicle (water) alone.
(§4) Twenty-four hours after the last dose the animals were killed by an increasing concentration of carbon dioxide. Blood was collected by cardiac puncture and plasma prepared and stored at −70° C. until analysed. Major tissues were weighed, sampled, flash frozen in liquid nitrogen and stored at −70° C.
(§5) Plasma was analysed for triglycerides, cholesterol and glucose using kits purchased from Sigma (Poole, Dorset). Concentrations of plasma insulin and leptin were determined using commercially available enzymeimmunoassay-based kits from Amersham Life Sciences and Crystalchem Inc., (Chicago) respectively. All assays were carried out as specified by the manufacturer.

Wistar rats = assay: Non-diabetic Wistar rats, oral gavage daily for 14 days; format: in vivo, rat
Protocol: (§6) The GK/Mol rat is a non-obese, diabetic animal that is widely accepted as a model of Type II diabetes. In order to measure the ‘normal’ response, non-diabetic Wistar rats were also used in the study.
(§7) One group of 10 GK/Mol rats was also treated with vehicle (water) alone.
as §4
(§8) Plasma was analysed for, triglycerides, cholesterol, glucose, insulin and leptin as described in section 1.1.1.

male Fischer 344 rats = assay: APFO in diet of male Fischer 344 rats for up to one year; format: in vivo, rat; details: 300 ppm in diet
Protocol: Body weights were initially determined daily and then weekly. Food consumption was determined weekly. Clinical observations were made daily.
Rats were sacrificed at 1, 2, 7, 14, 28, 90, 182 and 365 days. There were 8 rats per group. At sacrifice blood was sampled by cardiac puncture and submitted for clinical chemistry.

mouse PPAR alpha = molecular target: T1, mouse PPAR alpha (Mus musculus, UniProt P23204); assay: Mouse PPAR alpha transactivation assay in COS-1 cells; format: cell-based; details: luciferase reporter, 16 hours, read-out: EC50, activation of mouse PPAR alpha
T1 construct: expressed in transfected cells; host or cells: COS-1 cells
T1 sequence (P23204 1-468): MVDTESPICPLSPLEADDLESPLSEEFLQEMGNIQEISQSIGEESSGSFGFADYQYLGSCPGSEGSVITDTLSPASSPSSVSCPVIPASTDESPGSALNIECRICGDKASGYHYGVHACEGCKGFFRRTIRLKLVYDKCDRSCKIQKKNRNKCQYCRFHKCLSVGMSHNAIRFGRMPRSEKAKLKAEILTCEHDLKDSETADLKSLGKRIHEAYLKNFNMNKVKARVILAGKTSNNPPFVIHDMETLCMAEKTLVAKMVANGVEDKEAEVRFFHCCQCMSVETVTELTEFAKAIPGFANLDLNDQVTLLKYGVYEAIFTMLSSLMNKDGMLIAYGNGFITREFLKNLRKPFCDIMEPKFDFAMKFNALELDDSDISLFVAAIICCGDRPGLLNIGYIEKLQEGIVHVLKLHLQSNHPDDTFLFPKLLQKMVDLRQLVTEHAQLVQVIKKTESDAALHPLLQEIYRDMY

C57BL/6J-ob/ob mice = assay: Obese ob/ob mouse model, oral gavage daily for 14 days; format: in vivo
Protocol: as §2, §3, §4, §5

HT-29 xenograft = HT-29 xenograft model in nude mice; format: in vivo, nu/nu mice; details: for lag phase of tumour growth: ip 3 times per week
Protocol: Athymic nude (nu/nu) mice from ICRF stock (HsdOla:ICRF-nu) were obtained from Clare Hall (Pofters Bar, UK). All animals were female and approximately 9 weeks old. Animals, housed in isolator cages and handled under laminar flow, were divided into one control group and two treatment groups, with 5 female mice per group for both the prophylactic and therapeutic schedules
HT-29 cells were cultured according to the conditions described in section 2.1.1. Cells were harvested, pooled by centrifugation and resuspended in 5 ml medium to which 5 ml Matrigel (basement membrane matrix) was added. 100 μl of cell suspension was injected subcutaneously into each flank of the mice (1.75×10^6 cells per flank).
The volume of the dosing solution was 10 ml/kg bodyweight. Control animals received an equivalent volume of water.
Animal bodyweights were recorded throughout the study. Tumour growth was measured 3 times per week using digital calipers and the volume was calculated using the formula:
Where d1=mean length (n=2) and d2=mean width (n=2). (NB, n=4 if tumour was an irregular shape).
The maximum permitted tumour volume, according to the terms of the Home Office license, was 1.44 cm^3. Results were expressed graphically for each time point as mean tumour volumes. Tumour weights were recorded at the end of the study, and tumour samples were either snap frozen in liquid nitrogen or fixed in formal saline for further analysis.

GK/Mol rats = assay: Diabetic GK/Mol rat model, oral gavage daily for 14 days; format: in vivo
Protocol: as §6, §7, §4, §8

HT-29 cells = assay: In vitro cytotoxicity (MTT), HT-29; format: cell-based, human; details: HT-29, 4 hours exposure
Protocol: as §1

MCF7 cells = assay: In vitro cytotoxicity (MTT), MCF7; format: cell-based, human; details: MCF7, 4 hours exposure
Protocol: as §1

SMILES: N.O=C(O)C(F)(F)C(F)(F)C(F)(F)C(F)(F)C(F)(F)C(F)(F)C(F)(F)F [APFO, ammonium perfluorooctanoate]
- concentration eliciting a cytotoxic effect (HepG2 cells): exceeding 500 μM
- epididymal fat pad weight (C57BL/6J-+/+ mice): decreased
- overall food consumption lower than +/+ controls (C57BL/6J-+/+ mice): 31%
- plasma glucose, % of control values (C57BL/6J-+/+ mice): 55%
- plasma insulin concentration (C57BL/6J-+/+ mice): marked reduction
- plasma leptin concentration decreased (C57BL/6J-+/+ mice): to, or below the level of quantitation
- plasma triglycerides, % of control values (C57BL/6J-+/+ mice): 35%
- reduction in plasma cholesterol concentration (C57BL/6J-+/+ mice): ~30%
- bodyweight loss as percentage of initial bodyweight (C57BL/6J-+/+ mice; 14 days): 26%
- bodyweight gain (Wistar rats; 30 mg/kg): no effect
- food consumption versus controls (Wistar rats; 30 mg/kg): no difference
- plasma cholesterol, % of control values (Wistar rats; 30 mg/kg): 73%
- plasma insulin, % of control values (Wistar rats; 30 mg/kg): about 10%
- group mean plasma leptin lower than controls by (Wistar rats; 30 mg/kg/day): approximately 40%
- adverse clinical symptoms or changes in activity (male Fischer 344 rats): not accompanied by any adverse clinical symptoms
- bodyweight gain (male Fischer 344 rats): marked reductions
- plasma triglycerides (male Fischer 344 rats; 7 days and beyond): decreased
- food consumption per rat, % of control values (male Fischer 344 rats; after first week): 80-90%
- plasma cholesterol concentration (male Fischer 344 rats; all time points (1-365 days)): decreased
- plasma glucose concentration (male Fischer 344 rats; all time points (1-365 days)): decreased
- plasma insulin concentration (male Fischer 344 rats; all time points (1-365 days)): decreased
- decrease of food consumed per unit bodyweight (male Fischer 344 rats; first week): approximately 30%
- food consumption per rat, % of control consumption (male Fischer 344 rats; first week of treatment): approximately 50%
- body weights lower than concurrent controls (male Fischer 344 rats; up to one year): 25-30%
- EC50 (mouse PPAR alpha): 102 µM
- other adverse clinical observations (C57BL/6J-ob/ob mice; 5, 15, 25 mg/kg/day, 14 days): No other adverse clinical observations
- reduction in plasma insulin concentration (C57BL/6J-ob/ob mice; all treated ob/ob mice (5, 15, 25 mg/kg/day)): greater than 90%
- plasma triglyceride concentration (C57BL/6J-ob/ob mice; ob/ob, 5 mg/kg/day): no effect
- reduction of plasma glucose (C57BL/6J-ob/ob mice; ob/ob, 5 mg/kg/day): approximately 50%
- bodyweight (C57BL/6J-ob/ob mice; ob/ob, 5 mg/kg/day, 14 days): unaffected
- bodyweight loss over the study period (C57BL/6J-ob/ob mice; ob/ob, 15 mg/kg/day, 14 days): 20%
- reduction in plasma cholesterol concentration (C57BL/6J-ob/ob mice; ob/ob, 25 mg/kg/day): ~30%
- bodyweight loss as percentage of initial bodyweight (C57BL/6J-ob/ob mice; ob/ob, 25 mg/kg/day, 14 days): 33%
- plasma triglyceride, % of control values (C57BL/6J-ob/ob mice; ob/ob, 15 or 25 mg/kg/day): 40%
- plasma glucose, % of control values (C57BL/6J-ob/ob mice; ob/ob, 15 or 25 mg/kg/day, dose-related): approximately 20%
- epididymal fat pad weight (C57BL/6J-ob/ob mice; ob/ob, dose-related): decreased
- food consumption lower than control mice (C57BL/6J-ob/ob mice; ob/ob, high dose 25 mg/kg/day): 76%
- food consumption lower than control mice (C57BL/6J-ob/ob mice; ob/ob, intermediate dose 15 mg/kg/day): 53%
- reduction in plasma cholesterol concentration (C57BL/6J-ob/ob mice; ob/ob, low and mid dose levels (5, 15 mg/kg/day)): not evident
- food consumption lower than control mice (C57BL/6J-ob/ob mice; ob/ob, low dose 5 mg/kg/day): 17%
- animal body weight versus control (HT-29 xenograft; prophylactic and therapeutic groups, 15 and 25 mg/kg ip): no significant difference
- macroscopic appearance of tumours (HT-29 xenograft; prophylactic group, control tumours solid): fluid-filled
- tumour volume course (HT-29 xenograft; prophylactic, 15 mg/kg ip): continued to increase
- tumour weight smaller than in control animals (HT-29 xenograft; prophylactic, 15 mg/kg ip): 22%
- time after which tumour growth reached a plateau (HT-29 xenograft; prophylactic, 25 mg/kg ip): 26 days
- tumour weight smaller than in control animals (HT-29 xenograft; prophylactic, 25 mg/kg ip): 58%
- lag phase of tumour growth (HT-29 xenograft; prophylactic, control 15 days): 22 days
- tumour weight smaller than controls (HT-29 xenograft; therapeutic, 15 mg/kg ip): 45%
- tumour weight smaller than controls (HT-29 xenograft; therapeutic, 25 mg/kg ip): 37%
- plateau of tumour growth (HT-29 xenograft; therapeutic, highest dose group 25 mg/kg, study incomplete): No plateau was reached
- lag phase of tumour growth (HT-29 xenograft; therapeutic, control 17 days): 26 days
- plasma leptin concentration (GK/Mol rats; GK/Mol rats): no differences
- plasma glucose, % of control values (GK/Mol rats; GK/Mol, 30 mg/kg/day): about 85%
- total food consumption, % of control values (GK/Mol rats; GK/Mol, 3, 10, 30 mg/kg, not related to dose): 86-98%
- plasma insulin, % of control values (GK/Mol rats; GK/Mol, dose-dependent reduction reaching this value): about 10%
- body weight gain, % of control values (GK/Mol rats; GK/Mol, high dose 30 mg/kg): 44%
- body weight gain, % of control values (GK/Mol rats; GK/Mol, low dose 3 mg/kg): 90%
- body weight gain, % of control values (GK/Mol rats; GK/Mol, mid dose 10 mg/kg): 71%
- concentration eliciting a cytotoxic effect (HT-29 cells): exceeding 500 μM
- concentration eliciting a cytotoxic effect (MCF7 cells): exceeding 500 μM

From patent publication US8487003B2, “Treatment of cancer by administration of perfluorooctanoic acid” (CXR Biosciences Limited, priority 2001, dated 2013)
